Source: patent US12105023B2, “Multi-well plate readers and methods of their use” (QUELLTX, INC., priority 2021, dated 2024)
Read-outs that look alike come from different tables or passages of the source.

Experiments:
Assay type in all cases: cell-based
[1] = test system: IPSC-derived cardiomyocyte; assay: Simultaneous voltage and calcium imaging in IPSC-derived cardiomyocytes; conditions: 10-test pulse blue stimulation protocol, 3 wells of each concentration, FIG. 41
Text: A 24 objective plate reader of the invention was used to assay a 96-well plate that contained IPSC-derived cardiomyocyte expressing jRGECO1a calcium sensors, CheRiff actuators, and loaded with BeRST1 fluorescent voltage sensitive dye.
The line labeled “stim” indicates pulses of stimulating light transmitted by the plate reader to multiple wells of the 96-well plate, which caused actuation of CheRiff. This led to resulting changes in voltage and calcium ion concentrations in the cells. The resulting changes in voltage were reported by BeRST1, which was energized by red light transmitted from the plate reader. Calcium ion concentration was reported by jRGECO1, which was energized by yellow light. Thus, the plate reader was able to accurately stimulate an actuator and two reporters in multiple wells of a multi-well plate with three separate wavelengths of light. Moreover, the plate reader was able to simultaneously detect the levels of two separate emission wavelengths of light.
The voltage and calcium fluorescence waveforms in FIG. 40 show the average epoch of the 10-test pulse blue stimulation protocol.
Increasing concentration of Nifedipine altered both the voltage action potential waveform and calcium transients until it was completely extinguished at 0.3 uM.

Nav1.8 = biological target: T1, Nav1.8 (Homo sapiens, UniProt Q9Y5Y9); assay: Nav1.8 spiking HEK assay (optogenetic, 6-test pulse stimulation protocol)
T1 construct: expressed in transfected cells; host or cells: HEK cells co-expressing CheRiff-GFP and Kir2.1, with BeRST dye as the voltage sensor

Nav1.7 = biological target: T2, Nav1.7 (Homo sapiens, UniProt Q15858); assay: Nav1.7 spiking HEK assay
T2 construct: expressed in transfected cells; host or cells: HEK cells co-expressing CheRiff, Kir2.1 (lentiviral transduction) and a voltage reporter
T2 sequence (Q15858 whole entry): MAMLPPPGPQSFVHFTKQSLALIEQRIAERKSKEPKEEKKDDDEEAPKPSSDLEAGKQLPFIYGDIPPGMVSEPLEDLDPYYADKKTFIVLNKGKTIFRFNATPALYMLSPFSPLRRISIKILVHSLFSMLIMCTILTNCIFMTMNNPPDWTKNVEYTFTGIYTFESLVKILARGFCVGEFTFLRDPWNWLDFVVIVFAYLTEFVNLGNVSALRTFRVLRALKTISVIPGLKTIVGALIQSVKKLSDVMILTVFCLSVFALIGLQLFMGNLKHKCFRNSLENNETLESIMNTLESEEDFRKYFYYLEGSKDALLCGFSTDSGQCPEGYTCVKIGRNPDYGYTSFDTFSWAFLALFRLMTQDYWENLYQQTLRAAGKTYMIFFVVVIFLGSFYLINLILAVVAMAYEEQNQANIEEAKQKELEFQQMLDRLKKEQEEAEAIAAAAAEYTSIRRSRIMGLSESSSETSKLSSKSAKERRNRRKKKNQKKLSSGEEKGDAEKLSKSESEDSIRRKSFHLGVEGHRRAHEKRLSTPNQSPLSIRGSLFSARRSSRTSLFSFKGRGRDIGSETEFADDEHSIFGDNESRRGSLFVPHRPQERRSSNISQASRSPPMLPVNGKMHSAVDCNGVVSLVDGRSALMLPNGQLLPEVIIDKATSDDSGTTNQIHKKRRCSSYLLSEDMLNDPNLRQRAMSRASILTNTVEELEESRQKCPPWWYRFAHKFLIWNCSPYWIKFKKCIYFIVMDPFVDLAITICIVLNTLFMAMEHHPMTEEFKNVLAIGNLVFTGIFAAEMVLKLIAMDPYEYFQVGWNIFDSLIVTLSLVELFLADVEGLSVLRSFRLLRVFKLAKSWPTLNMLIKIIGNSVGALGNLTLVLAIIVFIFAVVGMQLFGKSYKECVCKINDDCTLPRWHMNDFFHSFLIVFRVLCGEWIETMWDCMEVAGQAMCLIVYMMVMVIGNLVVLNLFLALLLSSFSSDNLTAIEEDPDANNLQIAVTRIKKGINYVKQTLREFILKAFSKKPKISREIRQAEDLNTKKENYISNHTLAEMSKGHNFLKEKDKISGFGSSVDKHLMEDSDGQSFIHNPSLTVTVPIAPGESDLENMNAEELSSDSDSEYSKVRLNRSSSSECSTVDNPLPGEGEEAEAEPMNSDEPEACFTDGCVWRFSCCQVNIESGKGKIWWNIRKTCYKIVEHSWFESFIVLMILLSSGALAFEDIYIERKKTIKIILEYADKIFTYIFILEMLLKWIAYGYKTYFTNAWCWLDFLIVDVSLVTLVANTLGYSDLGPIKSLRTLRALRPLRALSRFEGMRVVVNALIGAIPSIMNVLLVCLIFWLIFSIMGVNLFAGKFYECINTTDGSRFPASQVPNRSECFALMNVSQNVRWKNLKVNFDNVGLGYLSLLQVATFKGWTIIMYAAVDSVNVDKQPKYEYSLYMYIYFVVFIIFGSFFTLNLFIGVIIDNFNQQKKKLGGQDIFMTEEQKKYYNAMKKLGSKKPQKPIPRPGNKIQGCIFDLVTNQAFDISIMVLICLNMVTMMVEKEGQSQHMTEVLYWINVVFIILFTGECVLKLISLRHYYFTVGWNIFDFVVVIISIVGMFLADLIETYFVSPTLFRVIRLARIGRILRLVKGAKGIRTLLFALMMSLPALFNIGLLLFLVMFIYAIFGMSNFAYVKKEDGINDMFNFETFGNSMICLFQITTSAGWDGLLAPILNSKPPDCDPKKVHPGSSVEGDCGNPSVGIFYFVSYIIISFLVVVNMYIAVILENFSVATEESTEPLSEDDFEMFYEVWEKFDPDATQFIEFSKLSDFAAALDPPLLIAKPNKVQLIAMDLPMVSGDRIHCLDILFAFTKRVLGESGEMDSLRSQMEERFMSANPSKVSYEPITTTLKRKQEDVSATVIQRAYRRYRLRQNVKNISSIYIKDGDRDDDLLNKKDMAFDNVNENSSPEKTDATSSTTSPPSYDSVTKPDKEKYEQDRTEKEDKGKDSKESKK

T1 sequence (Q9Y5Y9 whole entry): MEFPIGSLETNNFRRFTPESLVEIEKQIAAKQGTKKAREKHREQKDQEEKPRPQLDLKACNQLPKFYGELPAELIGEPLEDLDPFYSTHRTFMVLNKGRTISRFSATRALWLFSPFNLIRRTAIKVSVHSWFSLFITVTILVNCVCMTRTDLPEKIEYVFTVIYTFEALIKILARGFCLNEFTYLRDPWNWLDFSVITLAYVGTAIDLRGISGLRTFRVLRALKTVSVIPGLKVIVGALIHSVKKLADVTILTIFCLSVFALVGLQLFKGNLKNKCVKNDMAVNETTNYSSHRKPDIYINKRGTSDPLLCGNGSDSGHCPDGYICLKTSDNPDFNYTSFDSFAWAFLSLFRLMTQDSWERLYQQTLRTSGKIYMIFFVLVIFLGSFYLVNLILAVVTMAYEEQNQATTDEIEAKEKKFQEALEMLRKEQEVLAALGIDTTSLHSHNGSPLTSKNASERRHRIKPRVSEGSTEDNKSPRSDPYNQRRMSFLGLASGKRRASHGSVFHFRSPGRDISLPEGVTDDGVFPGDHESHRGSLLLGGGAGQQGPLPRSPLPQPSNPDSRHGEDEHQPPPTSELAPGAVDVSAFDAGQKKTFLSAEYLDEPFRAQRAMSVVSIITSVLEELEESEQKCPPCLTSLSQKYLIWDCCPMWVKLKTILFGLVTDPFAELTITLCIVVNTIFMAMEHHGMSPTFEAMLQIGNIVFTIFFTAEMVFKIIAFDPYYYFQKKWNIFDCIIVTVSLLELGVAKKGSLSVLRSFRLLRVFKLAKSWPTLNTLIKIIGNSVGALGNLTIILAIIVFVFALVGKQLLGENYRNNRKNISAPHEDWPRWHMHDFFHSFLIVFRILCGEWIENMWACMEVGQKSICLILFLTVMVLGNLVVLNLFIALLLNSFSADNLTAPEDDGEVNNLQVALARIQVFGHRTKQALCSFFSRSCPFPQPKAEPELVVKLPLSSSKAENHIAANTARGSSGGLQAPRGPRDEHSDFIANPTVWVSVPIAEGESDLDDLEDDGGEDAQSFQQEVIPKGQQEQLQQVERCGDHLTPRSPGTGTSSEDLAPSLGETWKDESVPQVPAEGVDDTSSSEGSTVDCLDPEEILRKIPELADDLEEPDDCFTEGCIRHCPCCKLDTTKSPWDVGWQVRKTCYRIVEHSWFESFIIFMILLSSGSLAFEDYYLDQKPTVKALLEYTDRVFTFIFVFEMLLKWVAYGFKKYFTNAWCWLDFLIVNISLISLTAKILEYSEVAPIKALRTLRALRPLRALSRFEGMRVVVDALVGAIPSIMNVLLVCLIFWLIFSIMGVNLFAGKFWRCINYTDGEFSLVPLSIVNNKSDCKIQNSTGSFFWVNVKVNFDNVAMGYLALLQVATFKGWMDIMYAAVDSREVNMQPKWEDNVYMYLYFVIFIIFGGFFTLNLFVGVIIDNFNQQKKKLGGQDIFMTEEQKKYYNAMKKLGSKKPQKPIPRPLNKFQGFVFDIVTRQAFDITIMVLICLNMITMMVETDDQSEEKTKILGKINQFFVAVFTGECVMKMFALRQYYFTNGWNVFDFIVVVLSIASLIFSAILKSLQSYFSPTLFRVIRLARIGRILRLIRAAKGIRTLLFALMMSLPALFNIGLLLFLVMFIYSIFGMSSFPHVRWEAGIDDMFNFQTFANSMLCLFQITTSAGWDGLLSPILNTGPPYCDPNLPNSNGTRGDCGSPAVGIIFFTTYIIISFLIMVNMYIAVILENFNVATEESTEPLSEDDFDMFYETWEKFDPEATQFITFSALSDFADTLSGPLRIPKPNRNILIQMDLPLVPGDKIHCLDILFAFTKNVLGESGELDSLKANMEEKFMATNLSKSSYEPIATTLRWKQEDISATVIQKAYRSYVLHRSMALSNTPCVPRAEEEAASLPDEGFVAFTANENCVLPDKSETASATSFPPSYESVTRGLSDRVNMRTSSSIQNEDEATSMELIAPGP

`COC(=O)C1=C(C)NC(C)=C(C(=O)OC)C1c1ccccc1[N+](=O)[O-]` [Nifedipine] was tested, and the “concentration at which voltage action potential waveform and calcium transients were completely extinguished” value [1] was 0.3 µM.
For `CNC(=O)c1ccc(-c2cc(Cl)cc(Cl)c2Cl)c(N)n1` [PF-01247324], the IC50 (Nav1.8; Nav1.8 spiking HEK assay, dose response curves, FIG. 43D, read-out: IC50, block of Nav1.8) was 130 nM, the “selectivity against Nav1.7” value (Nav1.8; Nav1.8 versus Nav1.7 spiking HEK assays, FIG. 43D) was 40 fold and the “test pulse preference of block (TP1 versus TP5)” value (Nav1.8; dose response curves at TP5 and TP1, FIG. 43C) was “preferentially blocks TP5”. The “test pulse at which blocker is more effective (slope of repolarization)” value (Nav1.8; representative traces, 6-test pulse protocol, FIG. 43B) was “more effective after the long pulse (TP5)”.
For `NC1=N[C@H](O)[C@H]2[C@H]3O[C@]4(O)O[C@@H]([C@@H](O)[C@@]2(N1)[C@@H]4O)[C@]3(O)CO` [TTX, Tetrodotoxin], the “test pulse preference of block (TP1 versus TP5)” value (Nav1.8) was “equivalently blocks TP1 and TP5” and the “selectivity for Nav1.7” value (Nav1.7) was “more than 1,000 fold”.
